Patent publication US8541460B2, “PDK-1/Akt signaling inhibitors” (The Ohio State University, priority 2003, dated 2013)

Tests used:
SK-OV-3 = assay: NCI DTP cell line screen (SRB), Ovarian Cancer; format: cell-based, human
Procedure: (§1) Screening of compounds 70 and 71 against several cancer cell lines The human tumor cell lines of the cancer screening panel are grown in RPMI 1640 medium containing 5% fetal bovine serum and 2 mM L-glutamine. For a typical screening experiment, cells are inoculated into 96 well microtiter plates in 100 μL at plating densities ranging from 5,000 to 40,000 cells/well depending on the doubling time of individual cell lines. After cell inoculation, the microtiter plates are incubated at 37° C., 5% CO2, 95% air and 100% relative humidity for 24 h prior to addition of experimental drugs.
(§2) After 24 h, two plates of each cell line are fixed in situ with TCA, to represent a measurement of the cell population for each cell line at the time of drug addition (Tz). Experimental drugs are solubilized in dimethyl sulfoxide at 400-fold the desired final maximum test concentration and stored frozen prior to use. At the time of drug addition, an aliquot of frozen concentrate is thawed and diluted to twice the desired final maximum test concentration with complete medium containing 50 μg/ml gentamicin. Additional four, 10-fold or ½ log serial dilutions are made to provide a total of five drug concentrations plus control. Aliquots of 100 μl of these different drug dilutions are added to the appropriate microtiter wells already containing 100 μl of medium, resulting in the required final drug concentrations.
(§3) Following drug addition, the plates are incubated for an additional 48 h at 37° C., 5% CO2, 95% air, and 100% relative humidity. For adherent cells, the assay is terminated by the addition of cold TCA. Cells are fixed in situ by the gentle addition of 50 μl of cold 50% (w/v) TCA (final concentration, 10% TCA) and incubated for 60 minutes at 4° C. The supernatant is discarded, and the plates are washed five times with tap water and air dried. Sulforhodamine B (SRB) solution (100 μl) at 0.4% (w/v) in 1% acetic acid is added to each well, and plates are incubated for 10 minutes at room temperature. After staining, unbound dye is removed by washing five times with 1% acetic acid and the plates are air dried. Bound stain is subsequently solubilized with 10 mM trizma base, and the absorbance is read on an automated plate reader at a wavelength of 515 nm. For suspension cells, the methodology is the same except that the assay is terminated by fixing settled cells at the bottom of the wells by gently adding 50 μl of 80% TCA (final concentration, 16% TCA). Using the seven absorbance measurements [time zero, (Tz), control growth, (C), and test growth in the presence of drug at the five concentration levels (Ti)], the percentage growth is calculated at each of the drug concentrations levels. Percentage growth inhibition is calculated as: [(Ti−Tz)/(C−Tz)]×100 for concentrations for which Ti>/=Tz [(Ti−Tz)/Tz]×100 for concentrations for which Ti<Tz
(§4) Three dose response parameters are calculated for each experimental agent. […] The drug concentration resulting in total growth inhibition (TGI) is calculated from Ti=Tz. […] Values are calculated for each of these three parameters if the level of activity is reached; however, if the effect is not reached or is exceeded, the value for that parameter is expressed as greater or less than the maximum or minimum concentration tested.
(§5) The methods described were used to test compounds 70 and 71 on a panel of sixty cell lines under a screening service provided by the Developmental Therapeutics Program at the National Institutes of Health. Shown in FIG. 1C are 1, RPMI-8226 leukemia cells; 2; NCI-H322M non-small cell lung cancer cells; 3, HT29 colon cancer cells; 4, U251 CNS cancer cells; 5, SK-MEL-28 melanoma cancer cells; 6, SK-OV-3 ovarian cancer cells; 7, RXF 393 renal cancer cells; 8, PC-3 prostate cancer cells; 9, MDA-MB-231 breast cancer cells.

RXF 393 = assay: NCI DTP cell line screen (SRB), Renal Cancer; format: cell-based, human
Procedure: as §1, §2, §3, §4, §5

CAKI-1 = assay: NCI DTP cell line screen (SRB), Renal Cancer; format: cell-based, human
Procedure: as §1, §2, §3, §4, §5

ACHN = assay: NCI DTP cell line screen (SRB), Renal Cancer; format: cell-based, human
Procedure: as §1, §2, §3, §4, §5

UO-31 = assay: NCI DTP cell line screen (SRB), Renal Cancer; format: cell-based, human
Procedure: as §1, §2, §3, §4, §5

A549/ATCC = assay: NCI DTP cell line screen (SRB), Non-Small Cell Lung Cancer; format: cell-based
Procedure: as §1, §2, §3, §4, §5

NCI-H23 = assay: as above; format: cell-based
Procedure: as §1, §2, §3, §4, §5

EKVX = assay: as above; format: cell-based
Procedure: as §1, §2, §3, §4, §5

[1] = read-out: LC50 (the source's name)

N=C(N)Nc1ccc(-n2nc(C(F)(F)F)cc2-c2ccc3c(ccc4ccccc43)c2)cc1 [Compound 71, 4-[5-(2-Phenanthrenyl)-3-(trifluoromethyl)-1H-pyrazol-1-yl]-phenyl-guanidine]
GI50 (SK-OV-3): 1430 nM | TGI (SK-OV-3): 2.94E−06 | Mean Optical Densities (SK-OV-3; Log10 Concentration −4.0): 0.278 | Percent Growth (SK-OV-3; Log10 Concentration −4.0): −30% | Mean Optical Densities (SK-OV-3; Log10 Concentration −5.0): 0.062 | Percent Growth (SK-OV-3; Log10 Concentration −5.0): −85% | Mean Optical Densities (SK-OV-3; Log10 Concentration −6.0): 1.093 | Percent Growth (SK-OV-3; Log10 Concentration −6.0): 75% | Mean Optical Densities (SK-OV-3; Log10 Concentration −7.0): 1.245 | Percent Growth (SK-OV-3; Log10 Concentration −7.0): 91% | Mean Optical Densities (SK-OV-3; Log10 Concentration −8.0): 1.261 | Percent Growth (SK-OV-3; Log10 Concentration −8.0): 93% | TGI (RXF 393): 2.91E−06 | Mean Optical Densities (RXF 393; Log10 Concentration −4.0): 0.385 | Percent Growth (RXF 393; Log10 Concentration −4.0): −4% | Mean Optical Densities (RXF 393; Log10 Concentration −5.0): 0.156 | Percent Growth (RXF 393; Log10 Concentration −5.0): −61% | Mean Optical Densities (RXF 393; Log10 Concentration −6.0): 0.629 | Percent Growth (RXF 393; Log10 Concentration −6.0): 53% | Mean Optical Densities (RXF 393; Log10 Concentration −7.0): 0.629 | Percent Growth (RXF 393; Log10 Concentration −7.0): 53% | Mean Optical Densities (RXF 393; Log10 Concentration −8.0): 0.582 | Percent Growth (RXF 393; Log10 Concentration −8.0): 42% | GI50 (CAKI-1): 1830 nM | Mean Optical Densities (CAKI-1; Log10 Concentration −4.0): 0.315 | Percent Growth (CAKI-1; Log10 Concentration −4.0): −47% | Mean Optical Densities (CAKI-1; Log10 Concentration −5.0): −0.067 | Percent Growth (CAKI-1; Log10 Concentration −5.0): −100% | Mean Optical Densities (CAKI-1; Log10 Concentration −6.0): 1.804 | Percent Growth (CAKI-1; Log10 Concentration −6.0): 103% | Mean Optical Densities (CAKI-1; Log10 Concentration −7.0): 1.642 | Percent Growth (CAKI-1; Log10 Concentration −7.0): 89% | Mean Optical Densities (CAKI-1; Log10 Concentration −8.0): 1.735 | Percent Growth (CAKI-1; Log10 Concentration −8.0): 97% | TGI (CAKI-1; in M (unit assumed)): 3.22E−06 | GI50 (ACHN): 1670 nM | Mean Optical Densities (ACHN; Log10 Concentration −4.0): 0.291 | Percent Growth (ACHN; Log10 Concentration −4.0): −22% | Mean Optical Densities (ACHN; Log10 Concentration −5.0): 0.034 | Percent Growth (ACHN; Log10 Concentration −5.0): −91% | Mean Optical Densities (ACHN; Log10 Concentration −6.0): 0.964 | Percent Growth (ACHN; Log10 Concentration −6.0): 90% | Mean Optical Densities (ACHN; Log10 Concentration −7.0): 0.902 | Percent Growth (ACHN; Log10 Concentration −7.0): 81% | Mean Optical Densities (ACHN; Log10 Concentration −8.0): 0.898 | Percent Growth (ACHN; Log10 Concentration −8.0): 80% | TGI (ACHN; in M (unit assumed)): 3.15E−06 | GI50 (UO-31): 1570 nM | Mean Optical Densities (UO-31; Log10 Concentration −4.0): 0.288 | Percent Growth (UO-31; Log10 Concentration −4.0): −35% | Mean Optical Densities (UO-31; Log10 Concentration −5.0): −0.030 | Percent Growth (UO-31; Log10 Concentration −5.0): −100% | Mean Optical Densities (UO-31; Log10 Concentration −6.0): 1.332 | Percent Growth (UO-31; Log10 Concentration −6.0): 87% | Mean Optical Densities (UO-31; Log10 Concentration −7.0): 1.407 | Percent Growth (UO-31; Log10 Concentration −7.0): 94% | Mean Optical Densities (UO-31; Log10 Concentration −8.0): 1.375 | Percent Growth (UO-31; Log10 Concentration −8.0): 91% | TGI (UO-31; in M (unit assumed)): 2.92E−06 | GI50 (A549/ATCC): 1680 nM | TGI (A549/ATCC): 3.04E−06 | Mean Optical Densities (A549/ATCC; Log10 Concentration −4.0): 0.135 | Percent Growth (A549/ATCC; Log10 Concentration −4.0): −63% | Mean Optical Densities (A549/ATCC; Log10 Concentration −5.0): −0.032 | Percent Growth (A549/ATCC; Log10 Concentration −5.0): −100% | Mean Optical Densities (A549/ATCC; Log10 Concentration −6.0): 1.121 | Percent Growth (A549/ATCC; Log10 Concentration −6.0): 93% | Mean Optical Densities (A549/ATCC; Log10 Concentration −7.0): 1.145 | Percent Growth (A549/ATCC; Log10 Concentration −7.0): 96% | Mean Optical Densities (A549/ATCC; Log10 Concentration −8.0): 1.140 | Percent Growth (A549/ATCC; Log10 Concentration −8.0): 96% | CC50 (A549/ATCC; [1]): 5.51 µM | GI50 (NCI-H23): 1790 nM | TGI (NCI-H23): 3.18E−06 | Mean Optical Densities (NCI-H23; Log10 Concentration −4.0): 0.151 | Percent Growth (NCI-H23; Log10 Concentration −4.0): −67% | Mean Optical Densities (NCI-H23; Log10 Concentration −5.0): −0.041 | Percent Growth (NCI-H23; Log10 Concentration −5.0): −100% | Mean Optical Densities (NCI-H23; Log10 Concentration −6.0): 1.679 | Percent Growth (NCI-H23; Log10 Concentration −6.0): 101% | Mean Optical Densities (NCI-H23; Log10 Concentration −7.0): 1.515 | Percent Growth (NCI-H23; Log10 Concentration −7.0): 87% | Mean Optical Densities (NCI-H23; Log10 Concentration −8.0): 1.585 | Percent Growth (NCI-H23; Log10 Concentration −8.0): 93% | CC50 (NCI-H23; [1]): 5.64 µM | GI50 (EKVX): 1060 nM | TGI (EKVX): 2.24E−06 | Mean Optical Densities (EKVX; Log10 Concentration −4.0): 0.145 | Percent Growth (EKVX; Log10 Concentration −4.0): −74% | Mean Optical Densities (EKVX; Log10 Concentration −5.0): −0.008 | Percent Growth (EKVX; Log10 Concentration −5.0): −100% | Mean Optical Densities (EKVX; Log10 Concentration −6.0): 0.711 | Percent Growth (EKVX; Log10 Concentration −6.0): 54% | Mean Optical Densities (EKVX; Log10 Concentration −7.0): 0.737 | Percent Growth (EKVX; Log10 Concentration −7.0): 63% | Mean Optical Densities (EKVX; Log10 Concentration −8.0): 0.713 | Percent Growth (EKVX; Log10 Concentration −8.0): 55% | CC50 (EKVX; [1]): 4.74 µM
